Experimental data taken from article PMC8641298 (ACS infectious diseases, 2020).

Key:
[1] = tested on: acetylated α-tubulin in HEK293 cells; test: HEK293 MT-stabilization assay; format: cell-based; details: either 1 or 10 μM, 4 h
[2] = tested on: adult S. mansoni; test: WormAssay, average adult worm motility; format: cell-based, Schistosoma mansoni; details: assays performed at 10 μM (footnote d), 5 h; DMSO control 104.1 ± 24.4
[3] = HeLa cytotoxicity; format: cell-based; details: human, HeLa cells
[4] = tested on: S. mansoni adults; test: In vitro phenotypic screen of S. mansoni adults; format: cell-based, Schistosoma mansoni; details: assays performed at 10 μM (footnote d)
[5] = HEK293 cytotoxicity; format: cell-based; details: human, HEK293 cells (method text: HEK 293T)
[6] = tested on: S. mansoni somules; test: In vitro phenotypic screen of S. mansoni somules; format: cell-based, Schistosoma mansoni

C[C@H](Nc1nc(-c2cccs2)ncc1-c1c(F)cc(F)cc1F)C(F)(F)F [Compound 26, (S)-2-(thiophen-2-yl)-5-(2,4,6-trifluorophenyl)-N-(1,1,1-trifluoropropan-2-yl)pyrimidin-4-amine]
Fold-change in acetylated α-tubulin (significance) [1]: NS^e
WormAssay (average adult worm movement ± SD) [2]: 11.0 ± 14.7^d
CC50 at 48 h [3]: > 100 µM
Phenotypic descriptors, adults 5 h ([4]; 5 h): S^d
Phenotypic descriptors, adults 24 h ([4]; 24 h): Unc, on sides^d
Phenotypic descriptors, adults 48 h ([4]; 48 h): S, dark, on sides^d
CC50 at 48 h [5]: > 50 µM
Phenotypic descriptors, somules (1 μM) 24 h ([6]; 1 μM, 24 h): R, S
Phenotypic descriptors, somules (1 μM) 48 h ([6]; 1 μM, 48 h): R
Phenotypic descriptors, somules (10 μM) 24 h ([6]; 10 μM, 24 h): R, S
Phenotypic descriptors, somules (10 μM) 48 h ([6]; 10 μM, 48 h): R, S
